Laboratory results taken from patent publication US11013235B2 (priority 2015, dated 2021).
Like-named read-outs stand apart in the source and are kept apart here.

Tests used:
Assay type in all cases: in vivo
[1] = system: Candidatus 'Liberibacter asiaticus'; settings: spraying every 15 days, 12 months after treatment, Citrus sinensis with HLB
Phytophthora parasitica = test: Control of Phytophthora parasitica disease in tobacco (Pp-Nt); settings: 1 μM spraying every 24 hours for one week, water control 91
Rhizoctonia solani [2] = test: Control of Rhizoctonia solani disease in tobacco (Rs-Nt); settings: 1 μM spraying every 24 hours for one week, water control 87
Nocardia sp = test: Control of Nocardia sp disease in tobacco (N-Nt); settings: 1 μM spraying every 24 hours for one week, water control 58
Procedure, shortened: (§1)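 Fifty pre-inoculated plants per treatment received 1 μM compound sprays daily for a week; water-sprayed plants served as controls. Disease scored as plant mortality (Nocardia), share of leaves with symptoms (A. solani) or lesion diameter (B. cinerea).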

Rhizoctonia solani [3] = test: Control of Rhizoctonia solani disease in tomato (Rs-SI); settings: 1 μM spraying every 24 hours for one week, water control 96
Alternaria solani = test: Control of Alternaria solani disease in tomato (As-SI); settings: 1 μM spraying every 24 hours for one week, water control 68
Procedure, shortened: as §1

Botrytis cinerea [4] = test: Control of Botrytis cinerea disease in Arabidopsis (Bc-At); settings: 1 μM spraying every 24 hours for one week, water control 8.7
Procedure, shortened: as §1

Botrytis cinerea [5] = test: Control of Botrytis cinerea disease in tobacco (Bc-Nt); settings: 1 μM spraying every 24 hours for one week, water control 6.7
Procedure, shortened: as §1

Botrytis cinerea [6] = test: Control of Botrytis cinerea disease in tomato (Bc-SI); settings: 1 μM spraying every 24 hours for one week, water control 7.4
Procedure, shortened: as §1

Radopholus similis = test: Nematode control, nodules per plant: Radopholus similis; settings: 1 μM foliar application every 5 days, evaluation 35 days after, control 45
Procedure, shortened: (§2)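 Ten plants per group were treated by spraying leaves only, every 5 days, with compound at 1 μM in water diluted from ethanol, and final nodule counts per plant were taken after 35 days.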

Meloidogyne incognita = test: Nematode control, nodules per plant: Meloidogyne incognita; settings: 1 μM foliar application every 5 days, evaluation 35 days after, control 34
Procedure, shortened: as §2

Pratylenchus coffeae = test: Nematode control, nodules per plant: Pratylenchus coffeae; settings: 1 μM foliar application every 5 days, evaluation 35 days after, control 42
Procedure, shortened: as §2

Compound | Titers of the bacterium ([1]; 0.001 μM) [copies per reaction] | Titers of the bacterium ([1]; 0.01 μM) [copies per reaction] | Titers of the bacterium ([1]; 1 μM) [copies per reaction] | Titers of the bacterium ([1]; 5 μM) [copies per reaction] | Titers of the bacterium ([1]; 10 μM) [copies per reaction] | Pp-Nt: percentage of mortality (Phytophthora parasitica) [%] | Rs-Nt: percentage of mortality (Rhizoctonia solani [2]) [%] | N-Nt: percentage of mortality (Nocardia sp) [%] | Rs-SI: percentage of mortality (Rhizoctonia solani [3]) [%] | As-SI: percentage of leaves with the disease symptoms (Alternaria solani) [%] | Bc-At: mean of the diameter of the lesion (Botrytis cinerea [4]) [mm] | Bc-Nt: mean of the diameter of the lesion (Botrytis cinerea [5]) [mm] | Bc-SI: mean of the diameter of the lesion (Botrytis cinerea [6]) [mm] | Rs: number of nodules per plant (Radopholus similis) | Mi: number of nodules per plant (Meloidogyne incognita) | Pc: number of nodules per plant (Pratylenchus coffeae)
CC(O)C(O)CN1CCC(Oc2ccc(C(=O)N3CCC(n4cccc4)C3)cc2)CC1 (stereo not drawn) [IVL, 1-[4-(4-{[3-(1H-pyrrol-1-yl)pyrrolidin-1-yl]carbonyl}phenoxy)piperidin-1-yl]butane-2,3-diol] | 635 | 1 | 7 | 65 | 9853 | 2 | 3 | 1 | 2 | 2 | 1.5 | 1.5 | 2.5 | 2 | 3 | 12
O=C(Cc1cc2c(oc1=O)C=CC1C(c3ccccc3)=COC21)NCC(O)CO (stereo not drawn) [IIB, N-(2,3-dihydroxypropyl)-2-{11-oxo-5-phenyl-3,10-dioxatricyclo[7.4.0.0^{2,6}]trideca-1(9),4,7,12-tetraen-12-yl}acetamide] | 432 | 17 | 2 | 43 | 8654 | 2 | 3 | 1 | 2 | 2 | 1.5 | 1.5 | 2.5 | 2 | 3 | 14
O=C(CC1COc2ccc(C(=O)Nc3ccccc3)cc2N1)NC(CO)CO (stereo not drawn) [VC, 3-{[(1,3-dihydroxypropan-2-yl)carbamoyl]methyl}-N-phenyl-3,4-dihydro-2H-1,4-benzoxazine-6-carboxamide] | 432 | 0 | 4 | 43 | 6524 | 0 | 0 | 0 | 0 | 7 | 1.2 | 0.3 | 0.8 | 0 | 0 | 0
Cc1nc(N2CCNCC2)ncc1C(=O)N1CC2CC(O)C(O)CC2C1 (stereo not drawn) [IIIJ, 2-{[4-methyl-2-(piperazin-1-yl)pyrimidin-5-yl]carbonyl}-octahydro-1H-isoindole-5,6-diol] | 578 | 0 | 7 | 578 | 7546 | 1 | 4 | 2 | 2 | 3 | 1.1 | 2.0 | 1.6 | 12 | 4 | 2
Cc1c2c(oc(=O)c1CC(=O)NCC(O)CO)C=CC1C(c3ccc4ccccc4c3)=COC21 (stereo not drawn) [IIL, N-(2,3-dihydroxypropyl)-2-[13-methyl-5-(naphthalen-2-yl)-11-oxo-3,10-dioxatricyclo[7.4.0.0^{2,6}]trideca-1(9),4,7,12-tetraen-12-yl]acetamide] | 635 | 1 | 0 | 65 | 5478 | 0 | 0 | 0 | 0 | 7 | 1.1 | 2.0 | 1.6 | 0 | 0 | 0
O=C(CCc1cc2cc3ccoc3cc2oc1=O)NCC(O)CO (stereo not drawn) [IF, N-(2,3-dihydroxypropyl)-3-{2-oxo-2H-furo[3,2-g]chromen-3-yl}propanamide] | 985 | 0 | 0 | 98 | 6325 | 0 | 0 | 0 | 1 | 5 | 0.7 | 0.9 | 1.2 | 0 | 0 | 0
Cc1coc2cc3oc(=O)c(CCC(=O)NCC(O)CO)cc3cc12 (stereo not drawn) [IA, N-(2,3-dihydroxypropyl)-3-{6-methyl-2-oxo-2H-furo[3,2-g]chromen-3-yl}propanamide] | 524 | 12 | 0 | 52 | 9652 | 1 | 2 | 1 | 3 | 1 | 1.2 | 0.3 | 0.8 | 12 | 23 | 18
O=C(c1cnc(N2CCN(c3ccccc3)CC2)nc1)N1CC2CC(O)C(O)CC2C1 (stereo not drawn) [IIIC, 2-{[2-(4-phenylpiperazin-1-yl)pyrimidin-5-yl]carbonyl}-octahydro-1H-isoindole-5,6-diol] | 587 | 0 | 0 | 87 | 3654 | 1 | 4 | 2 | 2 | 3 | 1.2 | 0.3 | 0.8 | 14 | 4 | 2
Cc1nc(N2CCN(C3CCCC3)CC2)ncc1C(=O)N1CC2CC(O)C(O)CC2C1 (stereo not drawn) [IIIH, 2-{[2-(4-cyclopentylpiperazin-1-yl)-4-methylpyrimidin-5-yl]carbonyl)-octahydro-1H-isoindole-5,6-diol] | 456 | 15 | 6 | 56 | 3657 | 1 | 2 | 1 | 3 | 1 | 0.7 | 0.9 | 1.2 | 14 | 2 | 16
